The results in this text go back to ChEMBL document CHEMBL1129911, “Synthesis, characterization, interaction with DNA, and antitumor activity of a cis-Dichloroplatinum(II) complex linked to an intercalator via one methylene chain” (Bioorg Med Chem Lett, 1997).

This assay concerns Nucleic Acid. In words: The association constant was obtained from absorption spectral change. In kind it is nucleic-acid assay.

Consider `NCCNCc1c2ccccc2nc2ccccc12`, for which the K ass was determined as 36000 M⁻¹.
